For one compound, IC50 results are on record in ChEMBL document CHEMBL1128553, “Synthesis of 1,4,7,8,9,10-hexahydro-9-methyl-6-nitropyrido[3,4-f]- quinoxaline-2,3-dione and related quinoxalinediones: characterization of alpha-amino-3-hydroxy-5-methyl-4-isoxazolepropionic acid (and N-methyl-D-aspartate) receptor and anticonvulsant activity” (J Med Chem, 1995).

In assay [1] the target is Glutamate receptor ionotropic, AMPA (Rattus norvegicus, UniProt P19491+P19492+P19493+P19490).
Description: (§1) Binding affinity was determined against ionotropic glutamate receptor AMPA in rat brain synaptic membranes using [3H]AMPA as radioligand
Assay [2] is filed under the species Rattus norvegicus. Put plainly: Concentration of compound that inhibits by 50% depolarizations induced by 10 uM AMPA. It is filed as functional.
The target of assay [3] is Glutamate receptor ionotropic, NMDA 1 (Rattus norvegicus, UniProt P35439). Kind of assay: Affinity for N-methyl-D-aspartate glutamate receptor 1 in rat brain synaptic membranes, using [3H]glycine as radioligand. It is filed as cell membranes.
The species named for assay [4] is Rattus norvegicus. Kind of assay: Concentration of compound that inhibits by 50% LDH released by 24 hr application of 500 uM kainate. In kind it is functional, organism-based.
Assay [5] addresses Glutamate receptor ionotropic, kainate. Put plainly: Antagonistic activity against Ionotropic glutamate receptor kainate induced LDH release in cultured cortical neurons in rat after 24 hr application of 500 uM of kainate. It is filed as functional. (In general: LDH leaks from cells whose membrane has failed.)
The species entered for assay [6] is Rattus norvegicus. Put plainly: Concentration of compound that inhibits by 50% LDH released by 24 hr application of 100 uM AMPA. In kind it is functional, organism-based.
In assay [7] the target is Glutamate receptor ionotropic, kainate. Put plainly: Binding affinity for the ionotropic glutamate receptor kainate in rat brain synaptic membranes using [3H]kainate as radioligand. It is filed as cell membranes.
For assay [8], the target named is T1, Glutamate receptor ionotropic, AMPA (Rattus norvegicus, UniProt P19490+P19491+P19492+P19493).
Description: Antagonistic activity against Ionotropic glutamate receptor AMPA induced LDH release in cultured rat cortical neurons after 24 hr 100 uM AMPA
Assay [9] deals with T1, Glutamate receptor ionotropic, AMPA. The source holds these as a separate data set.
Description: Inhibition of Ionotropic glutamate receptor AMPA induced depolarization in rat cortical wedge by application of 10 uM of AMPA
For assay [10] the target is unchanged. This is another data set of the same source.
Description: as §1

Glutamate receptor ionotropic, AMPA (Rattus norvegicus, UniProt P19491+P19492+P19493+P19490), sequence (P19491 whole entry): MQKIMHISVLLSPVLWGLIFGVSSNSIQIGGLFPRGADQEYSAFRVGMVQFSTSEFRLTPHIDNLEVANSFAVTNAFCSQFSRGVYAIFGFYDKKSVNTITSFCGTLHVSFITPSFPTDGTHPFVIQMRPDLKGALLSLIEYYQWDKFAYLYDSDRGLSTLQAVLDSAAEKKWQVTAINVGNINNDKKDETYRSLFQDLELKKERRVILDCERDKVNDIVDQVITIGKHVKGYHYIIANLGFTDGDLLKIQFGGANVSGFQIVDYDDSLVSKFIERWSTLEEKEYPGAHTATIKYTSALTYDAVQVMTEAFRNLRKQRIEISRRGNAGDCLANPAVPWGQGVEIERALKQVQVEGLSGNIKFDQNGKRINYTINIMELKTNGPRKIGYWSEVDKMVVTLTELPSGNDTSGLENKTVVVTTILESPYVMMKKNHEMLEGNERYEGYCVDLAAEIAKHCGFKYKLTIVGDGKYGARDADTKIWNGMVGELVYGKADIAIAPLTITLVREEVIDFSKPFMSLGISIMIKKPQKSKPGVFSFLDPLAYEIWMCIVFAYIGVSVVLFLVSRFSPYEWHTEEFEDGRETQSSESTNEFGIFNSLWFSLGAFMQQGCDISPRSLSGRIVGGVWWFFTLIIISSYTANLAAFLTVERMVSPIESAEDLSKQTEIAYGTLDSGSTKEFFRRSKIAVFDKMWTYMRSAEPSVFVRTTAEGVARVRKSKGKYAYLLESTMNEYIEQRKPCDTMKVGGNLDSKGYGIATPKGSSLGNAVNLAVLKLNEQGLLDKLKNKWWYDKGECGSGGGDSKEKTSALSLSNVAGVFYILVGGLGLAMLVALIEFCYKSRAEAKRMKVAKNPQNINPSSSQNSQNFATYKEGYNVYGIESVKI
Glutamate receptor ionotropic, AMPA (Rattus norvegicus, UniProt P19491+P19492+P19493+P19490), sequence (P19492 whole entry): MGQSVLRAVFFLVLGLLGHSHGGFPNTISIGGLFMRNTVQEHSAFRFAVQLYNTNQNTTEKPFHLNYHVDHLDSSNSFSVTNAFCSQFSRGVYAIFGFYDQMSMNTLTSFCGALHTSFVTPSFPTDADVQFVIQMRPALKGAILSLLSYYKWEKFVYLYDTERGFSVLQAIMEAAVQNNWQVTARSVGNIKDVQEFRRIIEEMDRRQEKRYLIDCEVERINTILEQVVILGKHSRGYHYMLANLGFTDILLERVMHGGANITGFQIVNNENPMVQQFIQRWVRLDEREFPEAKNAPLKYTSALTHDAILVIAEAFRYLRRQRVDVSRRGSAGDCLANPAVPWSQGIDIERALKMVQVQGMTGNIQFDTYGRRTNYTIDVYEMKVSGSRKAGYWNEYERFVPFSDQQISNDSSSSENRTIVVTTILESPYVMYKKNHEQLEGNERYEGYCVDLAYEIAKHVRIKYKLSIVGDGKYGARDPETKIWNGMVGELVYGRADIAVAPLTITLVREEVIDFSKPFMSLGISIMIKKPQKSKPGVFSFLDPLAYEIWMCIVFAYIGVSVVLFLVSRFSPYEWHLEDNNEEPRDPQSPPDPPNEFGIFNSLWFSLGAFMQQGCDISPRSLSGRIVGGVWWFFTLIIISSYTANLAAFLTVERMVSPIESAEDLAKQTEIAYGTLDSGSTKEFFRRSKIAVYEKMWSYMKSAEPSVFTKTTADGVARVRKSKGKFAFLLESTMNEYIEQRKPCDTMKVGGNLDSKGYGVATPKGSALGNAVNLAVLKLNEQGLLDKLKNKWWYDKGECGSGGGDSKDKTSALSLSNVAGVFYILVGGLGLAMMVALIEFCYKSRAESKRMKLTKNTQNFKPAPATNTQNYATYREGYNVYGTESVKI
Glutamate receptor ionotropic, AMPA (Rattus norvegicus, UniProt P19491+P19492+P19493+P19490), sequence (P19493 whole entry): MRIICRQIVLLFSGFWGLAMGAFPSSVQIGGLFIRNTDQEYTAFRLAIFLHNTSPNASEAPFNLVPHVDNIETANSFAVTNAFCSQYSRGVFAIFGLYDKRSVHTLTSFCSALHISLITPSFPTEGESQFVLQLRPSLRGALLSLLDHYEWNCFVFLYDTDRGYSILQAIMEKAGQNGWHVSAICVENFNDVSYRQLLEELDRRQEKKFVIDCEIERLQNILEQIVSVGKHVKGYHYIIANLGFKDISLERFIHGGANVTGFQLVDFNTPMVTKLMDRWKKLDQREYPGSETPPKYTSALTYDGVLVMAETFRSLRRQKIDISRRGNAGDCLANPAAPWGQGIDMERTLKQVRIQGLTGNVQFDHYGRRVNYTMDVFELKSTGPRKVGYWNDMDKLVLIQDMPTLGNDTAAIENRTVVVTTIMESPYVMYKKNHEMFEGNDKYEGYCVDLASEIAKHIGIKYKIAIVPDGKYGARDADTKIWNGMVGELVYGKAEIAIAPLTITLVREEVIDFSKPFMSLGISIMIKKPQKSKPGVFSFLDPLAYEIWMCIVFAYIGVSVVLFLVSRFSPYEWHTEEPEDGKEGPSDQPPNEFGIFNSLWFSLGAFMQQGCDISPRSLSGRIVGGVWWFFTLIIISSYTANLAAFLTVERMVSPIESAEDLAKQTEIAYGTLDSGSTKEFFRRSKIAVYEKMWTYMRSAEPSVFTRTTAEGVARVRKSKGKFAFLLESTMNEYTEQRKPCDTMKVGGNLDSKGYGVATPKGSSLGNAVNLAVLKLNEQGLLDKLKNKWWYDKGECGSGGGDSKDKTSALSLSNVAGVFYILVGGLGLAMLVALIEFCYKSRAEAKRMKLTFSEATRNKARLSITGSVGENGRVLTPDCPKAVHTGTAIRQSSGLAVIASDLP
Glutamate receptor ionotropic, AMPA (Rattus norvegicus, UniProt P19491+P19492+P19493+P19490), sequence (P19490 whole entry): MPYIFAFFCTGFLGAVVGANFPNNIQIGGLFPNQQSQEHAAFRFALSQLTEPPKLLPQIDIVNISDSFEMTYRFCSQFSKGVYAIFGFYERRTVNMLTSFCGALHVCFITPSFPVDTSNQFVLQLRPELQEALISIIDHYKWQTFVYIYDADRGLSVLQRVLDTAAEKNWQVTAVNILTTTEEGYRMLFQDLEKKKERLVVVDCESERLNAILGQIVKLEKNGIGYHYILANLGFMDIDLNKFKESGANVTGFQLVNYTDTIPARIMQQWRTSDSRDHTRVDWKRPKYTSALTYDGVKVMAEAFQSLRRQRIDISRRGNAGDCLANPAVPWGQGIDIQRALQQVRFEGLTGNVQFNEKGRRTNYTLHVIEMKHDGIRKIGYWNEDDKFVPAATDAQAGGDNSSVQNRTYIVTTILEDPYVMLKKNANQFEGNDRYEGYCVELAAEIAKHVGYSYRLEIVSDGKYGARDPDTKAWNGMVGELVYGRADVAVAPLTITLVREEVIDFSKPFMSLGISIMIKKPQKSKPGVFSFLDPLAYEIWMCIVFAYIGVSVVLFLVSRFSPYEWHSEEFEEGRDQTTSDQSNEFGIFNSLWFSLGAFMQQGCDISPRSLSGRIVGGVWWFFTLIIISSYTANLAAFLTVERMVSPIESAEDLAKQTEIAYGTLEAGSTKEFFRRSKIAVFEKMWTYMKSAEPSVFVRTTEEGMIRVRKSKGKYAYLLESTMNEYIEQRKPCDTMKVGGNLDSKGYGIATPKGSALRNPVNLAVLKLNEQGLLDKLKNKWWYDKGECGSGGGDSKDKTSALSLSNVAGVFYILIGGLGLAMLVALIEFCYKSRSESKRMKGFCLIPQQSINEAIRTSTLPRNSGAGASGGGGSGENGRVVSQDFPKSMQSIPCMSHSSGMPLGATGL

One may read the IC50 as the midpoint of a concentration-inhibition curve. On to `CN1CCc2c([N+](=O)[O-])cc3[nH]c(=O)c(=O)[nH]c3c2C1`, for which the IC50 in assay [1] came out at 0.063 µM; in the assay filed under Rattus norvegicus [2], 0.5 µM; in assay [3], 0.37 µM; in the assay filed under Rattus norvegicus [4], 4 µM; in assay [5], 4 µM; in the assay filed under Rattus norvegicus [6] it was 2.5 µM. The IC50 in assay [7] was found to be 0.368 µM; in assay [8] it was 2.5 µM; in [9] it was 0.5 µM; in assay [10], 0.063 µM.
